# Patent US9034918B2, “Composition including at least one trans-cinnamaldehyde and the use thereof in the treatment of bacterial infections, specifically in the treatment of nosocomial infections” (SEPTEOS, priority 2009, dated 2015)
# What was measured:
# Experiment in all cases: Antibiogram by diffusion technique (CA-SFM 2008)
# Type in all cases: cell-based
# E. coli strain 9003 = test system: E. coli strain 9003
# Source text: (§1) Three clinical categories were selected for interpretation of the in vitro sensitivity tests: sensitive (S), resistant (R) and intermediate (I). • The strains categorized S are those for which the probability of therapeutic success is high in the case of treatment by systemic route with the dosing schedule recommended in the summary of product characteristics (SPC) prepared by the French Health Products Safety Agency (AFSSAPS). • The strains categorized R are those for which there is a high probability of therapeutic failure regardless of treatment type and antibiotic dose. • The strains categorized I are those for which therapeutic success cannot be predicted. These strains form a heterogeneous group for which the results obtained in vitro are not predictive of therapeutic success. […] The intermediate category is also a buffer zone which takes into account technical and biological uncertainties.
# (§2) The sensitivity of strains to antibiotics was determined by a diffusion technique according to the 2008 recommendations by the Antibiogram Committee of the French Microbiology Society (CA-SFM).
# (§3) In terms of critical concentrations and diameters, strains are categorized as follows: • sensitive (S): strains for which the MIC of the antibiotic tested is less than or equal to the lower critical concentration c, which is equivalent to a diameter greater than or equal to the critical diameter D; • resistant (R): strains for which the MIC of the antibiotic tested are greater than the upper critical concentration C, corresponding to a diameter less than the critical diameter d; • intermediate sensitivity (I): strains for which the MIC of the antibiotic tested and the corresponding diameter are between the two critical concentrations and the two critical diameters.
# (§4) The tests were carried out on Mueller-Hinton agar. An inoculum adjusted to 0.5 on the McFarland scale is then diluted to 1/100. Petri dishes are inoculated by swabbing. The dishes are read after 24 hours of incubation at 37° C.
# (§5) The raw results are then interpreted according to the interpretative reading rules of the CA-SFM.
# [1] = test system: Enterobacter aerogenes (9004); settings: strain 9004
# Source text: as §1, §2, §3, §4, §5
# E. coli ATCC 25922 = test system: E. coli ATCC 25922; parameters: Diameter (D): unit not given here
# Source text: Three clinical categories were selected for interpretation of the in vitro sensitivity tests: sensitive (S), resistant (R) and intermediate (I). • The strains categorized S are those for which the probability of therapeutic success is high in the case of treatment by systemic route with the dosing schedule recommended in the summary of product characteristics (SPC) prepared by the French Health Products Safety Agency ([…]). • The strains categorized R are those for which there is a high probability of therapeutic failure regardless of treatment type and antibiotic dose. • The strains categorized I are those for which therapeutic success cannot be predicted. These strains form a heterogeneous group for which the results obtained in vitro are not predictive of therapeutic success. […] The intermediate category is also a buffer zone which takes into account technical and biological uncertainties. The sensitivity of strains to antibiotics was determined by a diffusion technique according to the 2008 recommendations by the Antibiogram Committee of the French Microbiology Society (CA-SFM). In terms of critical concentrations and diameters, strains are categorized as follows: • sensitive (S): strains for which the MIC of the antibiotic tested is less than or equal to the lower critical concentration c, which is equivalent to a diameter greater than or equal to the critical diameter D; • resistant (R): strains for which the MIC of the antibiotic tested are greater than the upper critical concentration C, corresponding to a diameter less than the critical diameter d; • intermediate sensitivity (I): strains for which the MIC of the antibiotic tested and the corresponding diameter are between the two critical concentrations and the two critical diameters. The tests were carried out on Mueller-Hinton agar. An inoculum adjusted to 0.5 on the McFarland scale is then diluted to 1/100. Petri dishes are inoculated by swabbing. The dishes are read after 24 hours of incubation at 37° C. The raw results are then interpreted according to the interpretative reading rules of the CA-SFM. Two examples: all strains of methicillin-resistant Staphylococcus are resistant to all beta-lactams, and the same is true for gentamicin-resistant strains; golden staph is necessarily resistant to kanamycin (and amikacin) and tobramycin. The quality of the diffusion method is controlled using E. coli strain ATCC 25922.
# E. coli strain 8154 = test system: E. coli strain 8154; parameters: D: unit not given here
# Source text: as §1, §2, §3, §4, §5
# E. coli strain 8155 = test system: E. coli strain 8155; parameters: D: unit not given here
# Source text: as §1, §2, §3, §4, §5
# E. coli strain 8156 = test system: E. coli strain 8156; parameters: D: unit not given here
# Source text: as §1, §2, §3, §4, §5
# E. coli strain 8157 = test system: E. coli strain 8157; parameters: D: unit not given here
# Source text: as §1, §2, §3, §4, §5
# [2] = test system: Pseudomonas aeruginosa strain 8128; parameters: D: unit not given here
# Source text: as §1, §2, §3, §4, §5
# [3] = test system: Pseudomonas aeruginosa strain 8129; parameters: D: unit not given here
# Source text: as §1, §2, §3, §4, §5
# [4] = test system: Pseudomonas aeruginosa strain 8132; parameters: D: unit not given here
# Source text: as §1, §2, §3, §4, §5
# [5] = test system: Pseudomonas aeruginosa strain 8134; parameters: D: unit not given here
# Source text: as §1, §2, §3, §4, §5
# [6] = test system: golden staph (S. aureus) strain 8147; parameters: D: unit not given here
# Source text: as §1, §2, §3, §4, §5
# [7] = test system: golden staph (S. aureus) strain 8239; parameters: D: unit not given here
# Source text: as §1, §2, §3, §4, §5
# [8] = test system: golden staph (S. aureus) strain 8240; parameters: D: unit not given here
# Source text: as §1, §2, §3, §4, §5
# [9] = test system: strain 9007, Pseudomonas aeruginosa, with VIM-2 carbapenemase
# Source text: as §1, §2, §3, §4, §5
# [10] = test system: strain 9010, Acinetobacter baumannii, with VEB-1 ESBL
# Source text: as §1, §2, §3, §4, §5
# Enterococcus strain 8152 = test system: Enterococcus strain 8152; parameters: Diameter: unit not given here
# Source text: as §1, §2, §3, §4, §5
# Enterococcus strain 8153 = test system: Enterococcus strain 8153; parameters: Diameter: unit not given here
# Source text: as §1, §2, §3, §4, §5
Compound,Category (E. coli strain 9003),Category [1],Category (Cat.) (E. coli ATCC 25922),Diameter (D) (E. coli ATCC 25922),Cat. (E. coli strain 8154),D (E. coli strain 8154),Cat. (E. coli strain 8155),D (E. coli strain 8155),Cat. (E. coli strain 8156),D (E. coli strain 8156),Cat. (E. coli strain 8157),D (E. coli strain 8157),Cat. [2],D [2],Cat. [3],D [3],Cat. [4],Cat. [5],Category [9],Category [10],other results
NCC[C@H](O)C(=O)N[C@@H]1C[C@H](N)[C@@H](O[C@H]2O[C@H](CN)[C@@H](O)[C@H](O)[C@H]2O)[C@H](O)[C@H]1O[C@H]1O[C@H](CO)[C@@H](O)[C@H](N)[C@H]1O [Amikacin],S,I,–,–,–,–,–,–,–,–,–,–,–,–,–,–,–,–,–,–,–
CC(=O)OCC1=C(C(=O)O)N2C(=O)[C@@H](NC(=O)Cc3cccs3)[C@H]2SC1 [Cefalotin],R,R,S,20,S,21,S,21,S,20,S,19,R,0,R,0,R,R,R,R,D [4]: 0; D [5]: 0; Cat. [6]: R; D [6]: 17; Cat. [7]: R; D [7]: 17; Cat. [8]: R; D [8]: 17
CO/N=C(\C(=O)N[C@@H]1C(=O)N2C(C(=O)[O-])=C(C[N+]3(C)CCCC3)CS[C@H]12)c1csc(N)n1 [Cefepime],R,R,S,25,S,–,S,–,S,–,S,–,S,–,S,–,S,S,S,R,–
CO/N=C(\C(=O)N[C@@H]1C(=O)N2C(C(=O)O)=C(COC(C)=O)CS[C@H]12)c1csc(N)n1 [Cefotaxime],R,R,–,–,–,–,–,–,–,–,–,–,–,–,–,–,–,–,–,–,–
CO[C@@]1(NC(=O)Cc2cccs2)C(=O)N2C(C(=O)O)=C(COC(N)=O)CS[C@@H]21 [Cefoxitin],–,–,S,24,S,26,S,25,S,26,S,30,R,0,R,0,R,R,R,R,D [4]: 0; D [5]: 0; Category (Enterococcus strain 8152): R; Diameter (Enterococcus strain 8152): 0; Category (Enterococcus strain 8153): S; Diameter (Enterococcus strain 8153): 25
CC(C)(O/N=C(\C(=O)N[C@@H]1C(=O)N2C(C(=O)[O-])=C(C[n+]3ccccc3)CS[C@H]12)c1csc(N)n1)C(=O)O [Ceftazidime],R,R,S,25,S,30,S,30,S,33,S,30,S,25,R,0,S,S,S,R,D [4]: 26; D [5]: 25
C[C@@H](O)[C@H]1C(=O)N2C(C(=O)O)=C(S[C@@H]3CN[C@H](C(=O)Nc4cccc(C(=O)O)c4)C3)[C@H](C)[C@H]12 [Eratpenem],S,S,–,–,–,–,–,–,–,–,–,–,–,–,–,–,–,–,–,–,–
C[C@@H](O)[C@H]1C(=O)N2C(C(=O)O)=C(SCCN=CN)C[C@H]12 [Imipenem],S,S,S,34,S,33,S,34,S,34,I,20,I,18,S,36,R,S,R,S,D [4]: 13; D [5]: 26
CCn1cc(C(=O)O)c(=O)c2ccc(C)nc21 [Nalidixic acid],–,–,S,28,S,24,S,28,S,27,R,0,R,0,R,0,R,R,R,R,D [4]: 0; D [5]: 0
CCn1cc(C(=O)O)c(=O)c2cc(F)c(N3CCNCC3)cc21 [Noroxin],R,R,–,–,–,–,–,–,–,–,–,–,–,–,–,–,–,–,–,–,–
CC1(C)S[C@@H]2[C@H](NC(=O)[C@H](C(=O)O)c3ccsc3)C(=O)N2[C@H]1C(=O)O [Ticarcillin],R,R,S,25,R,0,S,31,S,28,R,0,I,21,R,13,R,S,R,R,D [4]: 12; D [5]: 23
Bactrim,S,R,–,–,–,–,–,–,–,–,–,–,–,–,–,–,–,–,–,–,–
Colimycin,S,S,–,–,–,–,–,–,–,–,–,–,–,–,–,–,–,–,–,–,–
Pristinamycin,–,–,–,–,–,–,–,–,–,–,–,–,–,–,–,–,–,–,–,–,Cat. [6]: S; D [6]: 29; Cat. [7]: S; D [7]: 32; Cat. [8]: S; D [8]: 27; Category (Enterococcus strain 8152): S; Diameter (Enterococcus strain 8152): 23; Category (Enterococcus strain 8153): S; Diameter (Enterococcus strain 8153): 22
